# Values joined by “and” are separate entries in the source; they are usually repeats but may differ in a detail not shown here. Identical values can stand only once.
# Test: solvent given as SMILES
# [1] = in O=P(c1ccccc1)(c1ccccc1)c1ccccc1Oc1ccccc1P(=O)(c1ccccc1)c1ccccc1
smiles,measurement,setting,value
COc1ccc(C#Cc2nc(C#Cc3ccc(OC)cc3)c(C#Cc3ccc(OC)cc3)c(C#Cc3ccc(OC)cc3)c2C#Cc2ccc(OC)cc2)cc1,emission maximum,in ClCCl,459 nm
CCCCN(CCCC)c1ccc2c#cc3cc4c#cc5ccc(C(F)(F)F)cc5c#cc#cc5cc(N(CCCC)CCCC)ccc5c#cc4cc3c#cc3ccc(C(F)(F)F)cc3c#cc#cc2c1,emission maximum,in ClCCl,555 nm
same,emission maximum,in c1ccccc1,521 nm
CC[N+]1(CC)CN2C(=N1)C(C(=O)O)=Cc1c2ccc2ccccc12,emission maximum,in O,487 nm
Cc1ccccc1C,emission maximum,in C1CCCCC1,291.38 nm
CC(=O)Nc1ccc2c(c1)c(=O)c1ccccc1n2CCCCCC(=O)O,emission maximum,in O,450 nm
CCN(CC)c1ccc2c(-c3ccccc3C(=O)O)c3c([o+]c2c1)/C(=C/C=C/c1ccc(N(C)C)cc1)CCC3,emission maximum,in ClCCl,857 nm
c1ccc(-c2cc(-c3ccc4c(c3)C3(c5ccccc5-c5ccccc53)c3cc(-c5cc(-c6ccccn6)nc(-c6ccccn6)c5)ccc3-4)cc(-c3ccccn3)n2)nc1,emission maximum,in ClC(Cl)Cl,395 nm
Cc1cc(C)c(C2=C3C=CC=[N+]3[B-]3(F)Oc4cc(O)cc5c6ccc(C)cc6c6cc2n3c6c45)c(C)c1 (stereo not drawn),emission maximum,in ClC(Cl)Cl,649 nm
O=[N+]([O-])c1ccc2c(ccc3[n+]2[B-](F)(F)n2c-3cc3c4ccccc4c4ccccc4c32)c1,emission maximum,in ClCCl,631 nm
c1ccc2[nH]ccc2c1,emission maximum,in O,360 nm and 345 nm and 340 nm
CC1(C)c2ccccc2N(c2ccc3c(c2)Oc2ccccc2S3(=O)=O)c2ccccc21,emission maximum,in Cc1ccccc1,451 nm
same,emission maximum,[1],458 nm
COc1ccc(-c2ccc(-c3ccc(F)cc3)cc2)cc1,emission maximum,in C1COCCO1,352 nm
COc1ccc(-c2c(-c3ccc(C)cc3)c3n(c2-c2ccc(C)cc2)[B-](F)(F)[N+]2=C(c4ccc(C)cc4)C(/C=C/C(=O)OC4CC[C@@]5(C)C(=CC[C@H]6[C@@H]7CC[C@H]([C@H](C)CCCC(C)C)[C@@]7(C)CC[C@@H]65)C4)=C(c4ccc(C)cc4)C2=N3)cc1 (stereo partly drawn),emission maximum,in ClC(Cl)Cl,702 nm
Cc1cc2nc3c(=O)[nH]c(=O)n(C)c3nc2cc1C,emission maximum,in CC#N,437 nm
CCCCN(CCCC)c1ccc(C#Cc2cc(C#Cc3ccc(N(CCCC)CCCC)cc3)c(C#Cc3ccc(C(F)(F)F)cc3)cc2C#Cc2ccc(C(F)(F)F)cc2)cc1,emission maximum,in ClCCl,541 nm
same,emission maximum,in c1ccccc1,493 nm
CCCC1(CCC)c2cc(-c3ccco3)ccc2-c2ccc(-c3ccco3)cc21,emission maximum,in C1CCCCC1,377 nm
Cc1cc(C)c(B(c2ccc(N(c3ccccc3)c3ccccc3)cc2)c2c(C)cc(C)cc2C)c(C)c1,emission maximum,in Cc1ccccc1,437 nm
COC(=O)/C=C/c1ccc2ccc3cccc4ccc1c2c34,emission maximum,in C1CCOC1,425.5 nm
same,emission maximum,in C1COCCO1,422.5 nm
same,emission maximum,in C=CC#N,447.5 nm
same,emission maximum,in CC#N,450 nm
same,emission maximum,in CC(C)=O,438 nm
same,emission maximum,in CCCCCC,406.5 nm
same,emission maximum,in CCOC(C)=O,423 nm
same,emission maximum,in CO,462.5 nm
same,emission maximum,in Cc1ccccc1,423 nm
same,emission maximum,in ClCCl,442 nm
CC(C)(C)c1ccc2c(c1)c1cc(C(C)(C)C)ccc1n2-c1ccc(-c2nc(-c3ccc(-n4c5ccc(C(C)(C)C)cc5c5cc(C(C)(C)C)ccc54)cc3)nc(-c3ccc(P(=O)(c4ccccc4)c4ccccc4)cc3)n2)cc1,emission maximum,in C1CCOC1,501.73 nm
same,emission maximum,in CC#N,543.52 nm
same,emission maximum,in CC(C)=O,525.92 nm
same,emission maximum,in CN(C)C=O,574.19 nm
same,emission maximum,in Cc1ccccc1,474.19 nm
same,emission maximum,in ClCCl,526.57 nm
same,emission maximum,[1],492 nm
Fc1ccc(N(c2ccccc2)c2ccc3ccc4c(N(c5ccccc5)c5ccc(F)cc5)ccc5ccc2c3c54)cc1,emission maximum,in ClCCl,470 nm
COc1ccc2cc(C#N)c3ccc4ccccc4c3c2c1,emission maximum,in ClC(Cl)Cl,415 nm
CCC(C)[Si](C#Cc1c2nc3c4ccccc4c(=O)c4ccccc4c3nc2c(C#C[Si](C(C)CC)(C(C)CC)C(C)CC)c2nc3c4ccccc4c(=O)c4ccccc4c3nc12)(C(C)CC)C(C)CC (stereo not drawn),emission maximum,in ClCCl,571 nm
CCc1ccc(-c2nc(-c3ccc(-n4c5ccccc5c5ccccc54)cc3)cc(-c3ccc(-n4c5ccccc5c5ccccc54)cc3)n2)cc1,emission maximum,in C1CCOC1,436 nm
same,emission maximum,in CN(C)C=O,482 nm
same,emission maximum,in Cc1ccccc1,402 nm
same,emission maximum,in ClC(Cl)Cl,435 nm
Cc1nc2cccc(-c3nc4ccccc4s3)c2c(=O)[nH]1,emission maximum,in CN(C)C=O,416 nm
N#Cc1c(N2CCCCC2)cc(-c2cccc3ccccc23)c2c1CCc1ccccc1-2,emission maximum,in C1CCOC1,465 nm
CC(C)(C)NC(=O)c1ccc(C(=O)NC(C)(C)C)c2c1c1c3ccccc3c3ccccc3c1c1c3ccccc3c3ccccc3c21,emission maximum,in ClCCl,476 nm
Cc1cc(C2=C(c3cc(C)sc3C)S(=O)(=O)c3ccccc32)c(C)s1,emission maximum,in C1CCOC1,465 nm
O=c1ccc2ccc(C#Cc3ccccc3)cc2o1,emission maximum,in CC#N,364 nm
N#C/C(=C\c1ccc(C#N)cc1)c1nc(-c2ccccc2)cs1,emission maximum,in CC#N,501 nm
same,emission maximum,in CCO,500 nm
same,emission maximum,in CN(C)C=O,507 nm
same,emission maximum,in Cc1ccccc1,472 nm
same,emission maximum,in ClCCl,490 nm
C[Si]1(C)c2ccccc2-c2cc3c(cc21)-c1ccccc1[Si]3(C)C,emission maximum,in ClCCl,384 nm
CC[Si](CC)(CC)Oc1cccc(O[Si](CC)(CC)CC)c1-c1c2ccccc2c(-c2c(O[Si](CC)(CC)CC)cccc2O[Si](CC)(CC)CC)c2ccccc12,emission maximum,in C1CCCCC1,432 nm
Cc1cccc2[n+]1[B-](F)(F)n1c(c3cccc4cccc1c43)=N2,emission maximum,in C1CCOC1,496 nm
same,emission maximum,in CC#N,495 nm
same,emission maximum,in CCCCCC,494 nm
same,emission maximum,in Cc1ccccc1,498 nm
same,emission maximum,in ClCCl,521 nm
Clc1nnc(Oc2ccc(N(c3ccc(Br)cc3)c3ccc(Br)cc3)cc2)nn1,emission maximum,in ClCCl,559 nm
Cc1ccc(C2C(C#N)=C(N)n3c(=O)c4ccccc4c(=O)n32)cc1 (stereo not drawn),emission maximum,in CS(C)=O,450 nm
CCCCCCCCCCCCC1(CCCCCCCCCCCC)c2cc(-c3ccc(C=C4C(=O)c5ccccc5C4=O)cc3)ccc2-c2ccc(-c3ccc(C=C4C(=O)c5ccccc5C4=O)cc3)cc21,emission maximum,in C1CCOC1,531 nm
same,emission maximum,in CC(C)=O,566 nm
same,emission maximum,in CCCCCC,463 nm
same,emission maximum,in CS(C)=O,598 nm
same,emission maximum,in Cc1ccccc1,490 nm
same,emission maximum,in ClC(Cl)Cl,529 nm
Cc1ccc(N(c2ccc(C)cc2)c2ccc3c4cccc5c(N(c6ccc(C)cc6)c6ccc(C)cc6)ccc(c6cccc2c63)c54)cc1,emission maximum,in C1CCCCC1,546 nm
same,emission maximum,in C1CCOC1,551 nm
same,emission maximum,in CC#N,574 nm
same,emission maximum,in Cc1ccccc1,548 nm
same,emission maximum,in ClCCl,568 nm
Clc1ccc(-c2nc3ccccc3c3cc4ccccn4c23)s1,emission maximum,in CS(C)=O,523.5 nm
CC(C)(C)c1cc(-c2c3cc(c(-c4cc(C(C)(C)C)cc(C(C)(C)C)c4)c4ccc([nH]4)c(-c4ccc(Br)cc4)c4nc(c(-c5ccc(Br)cc5)c5ccc2[nH]5)C=C4)N=C3)cc(C(C)(C)C)c1,emission maximum,in ClCCl,741 nm
O=C(c1ccc(N2c3ccccc3Oc3ccccc32)cc1)c1ccc(N2c3ccccc3Oc3ccccc32)cc1,emission maximum,in Cc1ccccc1,509 nm
same,emission maximum,in c1cc(-n2c3ccccc3c3ccccc32)cc(-n2c3ccccc3c3ccccc32)c1,538 nm
CCC1(CC)c2ccccc2-c2c1c1c(c3c2C(CC)(CC)c2cc(/C=C/c4cccs4)ccc2-3)C(CC)(CC)c2cc(/C=C/c3cccs3)ccc2-1,emission maximum,in C1CCOC1,397 nm
NS(=O)(=O)c1ccc(N2N=C(c3ccc(O)cc3)CC2c2ccc(Br)cc2)cc1 (stereo not drawn),emission maximum,in C1CCOC1,417 nm
same,emission maximum,in C1COCCO1,417 nm
same,emission maximum,in CC#N,417 nm
same,emission maximum,in CC(C)O,423 nm
same,emission maximum,in CCO,428 nm
same,emission maximum,in CCOC(C)=O,415 nm
same,emission maximum,in CN(C)C=O,422 nm
same,emission maximum,in CO,432 nm
same,emission maximum,in CS(C)=O,424 nm
same,emission maximum,in O,449 nm
CC(C)(C)c1ccc2c(c1)c1cc(C(C)(C)C)ccc1n2-c1ccc(N(c2ccc(-c3ccc(-c4ccc(N(c5ccc(-n6c7ccc(C(C)(C)C)cc7c7cc(C(C)(C)C)ccc76)cc5)c5ccc(-n6c7ccc(C(C)(C)C)cc7c7cc(C(C)(C)C)ccc76)cc5)cc4)c4nsnc34)cc2)c2ccc(-n3c4ccc(C(C)(C)C)cc4c4cc(C(C)(C)C)ccc43)cc2)cc1,emission maximum,in ClCCl,600 nm
C(=C\c1ccncn1)/c1ccc(N(c2ccccc2)c2ccc(/C=C/c3ccncn3)cc2)cc1,emission maximum,in ClCCl,555 nm
Cc1cc2c(o1)=CC1=C(C(F)(F)F)c3cc4oc(C)cc4n3[B-](F)(F)[N+]=21,emission maximum,in ClC(Cl)Cl,620 nm
c1cnc(-c2c3ccccc3c(-c3ncccn3)c3ccccc23)nc1,emission maximum,in CCO,440 nm
same,emission maximum,in ClCCl,439 nm
c1ccc(-c2cc(-c3ccccc3)[o+]c(-c3ccccc3)c2)cc1,emission maximum,in CC#N,465 nm
same,emission maximum,in ClCCCl,463 nm
CCOC(=O)/C=C/C1=C(c2ccc(C)cc2)C2=Nc3c(-c4ccc(C)cc4)c(Br)c(-c4ccc(C)cc4)n3[B-](F)(F)[N+]2=C1c1ccc(C)cc1,emission maximum,in ClC(Cl)Cl,703 nm
CCCCCCCCOc1ccc(-c2c3c4n(c(-c5ccc(OCCCCCCCC)cc5)c3c3n2[B-](c2ccccc2)(c2ccccc2)[n+]2c(ccc5cc(C(C)(C)C)ccc52)C=3C#N)[B-](c2ccccc2)(c2ccccc2)[n+]2c(ccc3cc(C(C)(C)C)ccc32)C=4C#N)cc1,emission maximum,in ClC(Cl)Cl,831 nm
CC1(C)c2ccccc2N(c2ccc(-c3cccc(C#N)c3)cc2)c2ccccc21,emission maximum,in Cc1ccccc1,431 nm
same,emission maximum,in N#Cc1ccc2c(c1)c1ccccc1n2-c1cccc(-n2c3ccccc3c3ccccc32)c1,436 nm
CCCCCCc1ccc2c3c(ccc2c1)O[B-](F)(F)[N+](c1cc([N+]2=Cc4c(ccc5cc(CCCCCC)ccc45)O[B-]2(F)F)cc([N+]2=Cc4c(ccc5cc(CCCCCC)ccc45)O[B-]2(F)F)c1)=C3,emission maximum,in C1CCOC1,490 nm
same,emission maximum,in CC#N,495 nm
same,emission maximum,in Cc1ccccc1,493 nm
same,emission maximum,in ClCCl,495 nm
COc1c2ccccc2c(OC)c2c(C#CC(C)(C)C)c3cc4ccccc4cc3c(C#CC(C)(C)C)c12,emission maximum,in ClCCl,682 nm
CCCCCCc1ccc(/C=C/c2ccc(CCCCCC)s2)s1,emission maximum,in Cc1ccccc1,416 nm
Cc1ccc(-c2c3nc(c(-c4ccc(C)cc4)c4ccc([nH]4)c(-c4ccc(OC(=O)C(C)c5ccc(-c6ccccc6)c(F)c5)cc4)c4nc(c(-c5ccc(C)cc5)c5ccc2[nH]5)C=C4)C=C3)cc1 (stereo not drawn),emission maximum,in ClCCl,653 nm
CCN(CC)c1ccc2c(c1)oc(=O)c1c(C)nc3c(cnn3-c3ccccc3)c12,emission maximum,in ClCCl,439 nm
